According to US11932663B2 (CanWell Biotech Limited, priority 2020, dated 2024):

test system: Human PBMC; assay: TLR7/8 agonists induce cytokine release in human PBMC (ELISA of culture supernatant); type: cell-based; details: 24 h incubation, lowest concentration inducing cytokine at least 2x greater than negative control wells
Description: Example 8. TLR7/8 Agonists Induce IFN-Gamma and TNF-Alpha Release in Human PBMC
The system is used to assess the cytokines release. Activity is based on the measurement of interferon-gamma (IFN-γ) and tumor necrosis factor-alpha (TNF-α) secreted into culture media.
Fresh human blood was diluted with the same volume of PBS, 15 mL Lymphoprep was added into a Sepmate tube, then 30 mL diluted blood was added on the top gently without disturbing the interface.
The Sepmate tube was centrifuged for 25 min at 1000×g at RT with brake off.
The buffy coat containing peripheral blood mononuclear cells (PBMCs) was collected from Sepmate tube and transferred into a new tube, and the cells were washed with 40 mL PBS twice and centrifuged at 350×g for 5 min.
PBMCs were resuspended in complete culture medium at a density of 2E6/ml.
The compounds are solubilized in dimethyl sulfoxide (DMSO) and diluted into indicated concentration with complete culture medium.
2*10^5 PBMCs (in 100 μL) were added to each well of 96-well flat bottom plate.
2× final concentration of 3-fold serial diluted compounds (in 100 μL) were added to indicated wells and final volume was 200 μL.
The plate was covered with sterile lids, mixed gently and then incubated for 24 h at 37° C./5% CO2 incubator.
Following incubation, the plates was centrifuged for 5 min. at 400×g. The cell-free culture Supernatant was removed into a non-sterile polypropylene plate. Samples are maintained at −80° C. until analysis. The samples were analyzed for TNF-α and IFN-γ by ELSA according to the direction.
TNF-α and IFN-α were analyzed by ELISA. IFN-α concentration was determined by ELISA using a Human IFN-α ELISA Kit from R&D Systems (Catalog #41100-2) and read on VICTOR Nivo™ from PerkinElmer. Results were expressed in pg/mL. TNF-α concentration was determined by ELISA using a Human TNF-alpha ELISA MAX™ Deluxe from BioLegend (Catalog #430205) and read on VICTOR Nivo™ from PerkinElmer. Results were expressed in pg/mL.
Specifically, the MEC of each compound (micromolar) was determined as the lowest concentration of the compound that induced a measured cytokine response at a level ([…]) that was at least 2× greater than that observed with the negative control wells.

Point of comparison: CCCCCCCCCCCCCCCCCNc1c(NCCCCOn2c(CCCC)nc3c(N)nc4cc(P(C)(C)=O)ccc4c32)c(=O)c1=O [Example 4], “MEC to induce cytokine IFN-alpha” value 1.73 µM. Against it:
- CCCCc1nc2c(N)nc3cc(P(C)(C)=O)ccc3c2n1OCCCCN [Example 1, (4-amino-1-(4-aminobutoxy)-2-butyl-1H-imidazo[4,5-c]quinolin-7-yl)dimethylphosphine oxide] — 38-fold lower, 0.046 µM
- CCCCCCCCCCCCCCCCCNc1c(NCCCCOn2c(CCCC)nc3c(N)nc4cc(P(=O)(CC)CC)ccc4c32)c(=O)c1=O [Example 7, 3-(4-(4-amino-2-butyl-7-(diethylphosphoryl)-1H-imidazo[4,5-c]quinolin-1-yloxy)butylamino)-4-(heptadecylamino)cyclobut-3-ene-1,2-dione] — 120-fold lower, 0.015 µM
- CCCCc1nc2c(N)nc3cc(P(=O)(CC)CC)ccc3c2n1OCCCCN [Example 2, (4-amino-1-(4-aminobutoxy)-2-butyl-1H-imidazo[4,5-c]quinolin-7-yl)diethylphosphine oxide] — 13-fold lower, 0.137 µM
- CCCCCCCCCCCCCCCCCC(=O)NCCCCOn1c(CCCC)nc2c(N)nc3cc(P(C)(C)=O)ccc3c21 [Example 3, N-(4-((4-amino-2-butyl-7-(dimethylphosphoryl)-1H-imidazo[4,5-c]quinolin-1-yl)oxy)butyl)stearamide] — 120-fold lower, 0.015 µM

Point of comparison: CCCCc1nc2c(N)nc3cc(P(=O)(CC)CC)ccc3c2n1OCCCCN [Example 2, (4-amino-1-(4-aminobutoxy)-2-butyl-1H-imidazo[4,5-c]quinolin-7-yl)diethylphosphine oxide], “MEC to induce cytokine TNF-alpha” value 11.1 µM. Against it:
- CCCCc1nc2c(N)nc3cc(P(C)(C)=O)ccc3c2n1OCCCCN [Example 1, (4-amino-1-(4-aminobutoxy)-2-butyl-1H-imidazo[4,5-c]quinolin-7-yl)dimethylphosphine oxide] — 3-fold lower, 3.7 µM
- CCCCCCCCCCCCCCCCCNc1c(NCCCCOn2c(CCCC)nc3c(N)nc4cc(P(C)(C)=O)ccc4c32)c(=O)c1=O [Example 4] — the same, 11.1 µM
- CCCCCCCCCCCCCCCCCNc1c(NCCCCOn2c(CCCC)nc3c(N)nc4cc(P(=O)(CC)CC)ccc4c32)c(=O)c1=O [Example 7, 3-(4-(4-amino-2-butyl-7-(diethylphosphoryl)-1H-imidazo[4,5-c]quinolin-1-yloxy)butylamino)-4-(heptadecylamino)cyclobut-3-ene-1,2-dione] — 3-fold lower, 3.7 µM
- CCCCCCCCCCCCCCCCCC(=O)NCCCCOn1c(CCCC)nc2c(N)nc3cc(P(C)(C)=O)ccc3c21 [Example 3, N-(4-((4-amino-2-butyl-7-(dimethylphosphoryl)-1H-imidazo[4,5-c]quinolin-1-yl)oxy)butyl)stearamide] — 740-fold lower, 0.015 µM

In the case of CCCCCCCCCCCCCCCCCc1cn(CCCCOn2c(CCCC)nc3c(N)nc4cc(P(C)(C)=O)ccc4c32)nn1 [Example 6, (4-amino-2-butyl-1-(4-(4-heptadecyl-1H-1,2,3-triazol-1-yl)butoxy)-1H-imidazo[4,5-c]quinolin-7-yl)dimethylphosphine oxide], the “MEC to induce cytokine IFN-alpha” value is reported as >33.3 µM.

With CCCCCCCCCCCCCCCCCc1cn(CCCCOn2c(CCCC)nc3c(N)nc4cc(P(C)(C)=O)ccc4c32)nn1 [Example 6, (4-amino-2-butyl-1-(4-(4-heptadecyl-1H-1,2,3-triazol-1-yl)butoxy)-1H-imidazo[4,5-c]quinolin-7-yl)dimethylphosphine oxide] the “MEC to induce cytokine TNF-alpha” value was >33.3 µM.
